The results in this text go back to ChEMBL document CHEMBL4823282, “Novel Broad-Spectrum Antimicrobial Peptide Derived from Anoplin and Its Activity on Bacterial Pneumonia in Mice” (J Med Chem, 2021).

Series [1] relates to Staphylococcus aureus. Kind of series: Antibacterial activity against Staphylococcus aureus ATCC 25923 incubated for 18 hrs by CLSI based broth dilution method. In kind it is functional. For orientation: In broth dilution the organism is exposed to a series of concentrations in liquid medium.
The next series relates to Bacillus subtilis. Kind of series: Antibacterial activity against Bacillus subtilis ATCC 23857 incubated for 18 hrs by CLSI based broth dilution method. The series is classed as functional.
The subject of the next series is Enterococcus faecalis. Kind of series: Antibacterial activity against Enterococcus faecalis ATCC 29212 incubated for 18 hrs by CLSI based broth dilution method. In kind it is functional.
Series [2] deals with Staphylococcus epidermidis. Kind of series: Antibacterial activity against Staphylococcus epidermidis ATCC 12228 incubated for 18 hrs by CLSI based broth dilution method. The series is classed as functional.
Series [3] relates to Escherichia coli. Kind of series: Antibacterial activity against Escherichia coli ATCC 25922 incubated for 18 hrs by CLSI based broth dilution method. The series is classed as functional.
Series [4] concerns Pseudomonas aeruginosa. Kind of series: Antibacterial activity against Pseudomonas aeruginosa ATCC 27853 incubated for 18 hrs by CLSI based broth dilution method. In kind it is functional.
Series [5] relates to Klebsiella pneumoniae. Kind of series: Antibacterial activity against Klebsiella pneumoniae ATCC 700603 incubated for 18 hrs by CLSI based broth dilution method. The series is classed as functional.
The subject of another series is Acinetobacter baumannii. Kind of series: Antibacterial activity against Acinetobacter baumannii ATCC 19606 incubated for 18 hrs by CLSI based broth dilution method. The note with it: ATCC 19606 = CIP 70.34 = JCM 6841. In kind it is functional.
The test system of a further series is Erythrocyte. Kind of series: Hemolytic activity in BALB/C mouse erythrocytes incubated for 1 hr by absorbance method. In kind it is ADME, cell-based.
Series [6] is described as follows: Cytotoxicity against human glomerular mesangial cells incubated for 12 hrs by MTT assay. In kind it is cell-based. To be noted: Glomerular mesangial cell. On the technique in general: Tetrazolium assays rely on reduction of a dye to a coloured formazan, in cell work by metabolically active cells.
Series [7] deals with Bacteria. Kind of series: Antibacterial activity against bacteria incubated for 18 hrs by CLSI based broth dilution method. In kind it is functional.
The test system of another series is Fungi. Kind of series: Antibacterial activity against fungi incubated for 18 hrs by CLSI based broth dilution method. In kind it is functional.
Series [8] is described as follows: Selectivity ratio of MHC10 for BALB/C mouse erythrocytes to MIC for bacteria. In kind it is toxicity.
Series [9] is described as follows: Selectivity ratio of MHC10 for BALB/C mouse erythrocytes to MIC for fungi. The series is classed as toxicity.
Series [10] concerns Bacteria. Kind of series: Antibacterial activity against Gram-positive bacteria incubated for 18 hrs by CLSI based broth dilution method. In kind it is functional.
Series [11] can be described thus: Selectivity ratio of MHC10 for BALB/C mouse erythrocytes to MIC for gram positive bacteria. The series is classed as toxicity.
Series [12] concerns Bacteria. Kind of series: Antibacterial activity against Gram-negative bacteria incubated for 18 hrs by CLSI based broth dilution method. In kind it is functional.
Series [13] can be described thus: Selectivity ratio of MHC10 for BALB/C mouse erythrocytes to MIC for gram-negative bacteria. In kind it is toxicity.
Series [14] relates to Pseudomonas aeruginosa. Kind of series: Synergistic antibacterial activity against Pseudomonas aeruginosa ATCC 27853 at 2 times MIC incubated for 18 to 24 hrs in presence of 2 times MIC of rifampicin by broth microdilution assay based checkerboard assay. To be noted: time 18-24 hrs. In kind it is functional.
Series [15] relates to Pseudomonas aeruginosa. Kind of series: Synergistic antibacterial activity against Pseudomonas aeruginosa ATCC 27853 at 2 times MIC incubated for 18 to 24 hrs in presence of 2 times MIC of polymyxin B by broth microdilution assay based checkerboard assay. The series is classed as functional. To be noted: time 18-24 hrs.
For series [16], the system named is Escherichia coli. Kind of series: Synergistic antibacterial activity against Escherichia coli ATCC 25922 at 2 times MIC incubated for 18 to 24 hrs in presence of 2 times MIC of rifampicin by broth microdilution assay based checkerboard assay. The series is classed as functional. To be noted: time 18-24 hrs.
The subject of series [17] is Escherichia coli. Kind of series: Synergistic antibacterial activity against Escherichia coli ATCC 25922 at 2 times MIC incubated for 18 to 24 hrs in presence of 2 times MIC of polymyxin B by broth microdilution assay based checkerboard assay. The series is classed as functional. The note with it: time 18-24 hrs.
Series [18] concerns Escherichia coli. Kind of series: Synergistic antibacterial activity against Escherichia coli ATCC 25922 at 2 times MIC incubated for 18 to 24 hrs in presence of 2 times MIC of gentamycin by broth microdilution assay based checkerboard assay. The series is classed as functional. The note with it: time 18-24 hrs.
The test system of series [19] is Klebsiella pneumoniae. Kind of series: Synergistic antibacterial activity against Klebsiella pneumoniae ATCC 700603 at 2 times MIC incubated for 18 to 24 hrs in presence of 2 times MIC of rifampicin by broth microdilution assay based checkerboard assay. In kind it is functional. To be noted: time 18-24 hrs.
Series [20] has as its system Klebsiella pneumoniae. Kind of series: Synergistic antibacterial activity against Klebsiella pneumoniae ATCC 700603 at 2 times MIC incubated for 18 to 24 hrs in presence of 2 times MIC of polymyxin B by broth microdilution assay based checkerboard assay. The series is classed as functional. The note with it: time 18-24 hrs.
Series [21] concerns Klebsiella pneumoniae. Kind of series: Synergistic antibacterial activity against Klebsiella pneumoniae ATCC 700603 at 2 times MIC incubated for 18 to 24 hrs in presence of 2 times MIC of gentamycin by broth microdilution assay based checkerboard assay. In kind it is functional. To be noted: time 18-24 hrs.
For series [22], the system named is Pseudomonas aeruginosa. Kind of series: Antibacterial activity against gentamicin-resistant Pseudomonas aeruginosa ATCC 27853 incubated for 18 hrs in presence of EDTA by CLSI based broth dilution method. In kind it is functional, organism-based.
For series [23], the system named is Pseudomonas aeruginosa. Kind of series: Antibacterial activity against gentamicin-resistant Pseudomonas aeruginosa ATCC 27853 incubated for 18 hrs by CLSI based broth dilution method. The series is classed as functional.
In series [24] the test system is Pseudomonas aeruginosa. Kind of series: Antibacterial activity against rifampin-resistant Pseudomonas aeruginosa ATCC 27853 incubated for 18 hrs by CLSI based broth dilution method. In kind it is functional.
The test system of series [25] is Staphylococcus aureus. Kind of series: Antibacterial activity against Staphylococcus aureus ATCC 25923 incubated with 0.02 ug/ml trypsin for 6 hrs followed by bacterial addition and measured after 18 hrs by CLSI based broth dilution method. In kind it is functional, organism-based. The note with it: dose 0.02 µg/ml, time 23.0 hrs.
The subject of series [26] is Klebsiella pneumoniae. Kind of series: Antibacterial activity against Klebsiella pneumoniae ATCC 700603 incubated with 0.02 ug/ml trypsin for 6 hrs followed by bacterial addition and measured after 18 hrs by CLSI based broth dilution method. The note with it: dose 0.02 µg/ml, time 23.0 hrs. The series is classed as functional, organism-based.
Series [27] has as its system Staphylococcus aureus. Kind of series: Antibacterial activity against Staphylococcus aureus ATCC 25923 incubated with 0.02 ug/ml chymotrypsin for 6 hrs followed by bacterial addition and measured after 18 hrs by CLSI based broth dilution method. In kind it is functional, organism-based. To be noted: dose 0.02 µg/ml, time 23.0 hrs.
Series [28] deals with Klebsiella pneumoniae. Kind of series: Antibacterial activity against Klebsiella pneumoniae ATCC 700603 incubated with 0.02 ug/ml chymotrypsin for 6 hrs followed by bacterial addition and measured after 18 hrs by CLSI based broth dilution method. In kind it is functional, organism-based. To be noted: dose 0.02 µg/ml, time 23.0 hrs.
Series [29] relates to Escherichia coli. Kind of series: Antibiofilm activity against Escherichia coli ATCC 25922 at 4 times MIC incubated for 24 hrs by crystal violet staining based assay. In kind it is functional, organism-based.
For series [30], the system named is Klebsiella pneumoniae. Kind of series: Antibiofilm activity against Klebsiella pneumoniae ATCC 700603 at 2 to 4 times MIC incubated for 24 hrs by crystal violet staining based assay. The series is classed as functional, organism-based.
Series [31] concerns Staphylococcus aureus. Kind of series: Antibacterial activity against Staphylococcus aureus ATCC 25923 at 0.5 to 1 times MIC incubated for 24 hrs by crystal violet staining based assay. In kind it is functional, organism-based.

≈ marks a conversion by molar mass, not a printed value. Calls of active or inactive are those of the source. Where a SMILES comes first, the peptide text is derived from it.

For the molecule `CC(C)C[C@H](NC(=O)CN)C(=O)N[C@@H](Cc1c[nH]c2ccccc12)C(=O)N[C@@H](CCCCN)C(=O)N[C@@H](CCCNC(=N)N)C(=O)N[C@@H](Cc1c[nH]c2ccccc12)C(=O)N[C@@H](CCCCN)C(=O)N[C@@H](CCCCN)C(=O)N[C@@H](Cc1ccccc1)C(=O)N[C@@H](Cc1c[nH]c2ccccc12)C(N)=O` (H-GLWKRWKKFW-NH2), the MIC came to 8 µM (≈ 11.5 µg/mL) against Staphylococcus aureus [1]; 8 µM (≈ 11.5 µg/mL) against Bacillus subtilis; 32 µM (≈ 45.9 µg/mL) in the series on Enterococcus faecalis; 16 µM (≈ 22.9 µg/mL) in series [2]; 8 µM (≈ 11.5 µg/mL) in the series with Escherichia coli [3]; 8 µM (≈ 11.5 µg/mL) with Pseudomonas aeruginosa [4]. The minimum inhibitory concentration (MIC) against Klebsiella pneumoniae [5] turned out to be 8 µM (≈ 11.5 µg/mL); against Acinetobacter baumannii it was 16 µM (≈ 22.9 µg/mL); in the series on Bacteria [7] it was 10.4 µM (≈ 14.9 µg/mL); in the series on Fungi, 10.4 µM (≈ 14.9 µg/mL); in the series with Bacteria [10], 13.5 µM (≈ 19.4 µg/mL); in the series on Bacteria [12] it was 8 µM (≈ 11.5 µg/mL). In addition, the MHC10 with Erythrocyte was 83.63 µM. The concentration for half-maximal inhibition (IC50) in series [6] was 39 µM. The figures for the selectivity ratio in series [8], in series [9] and in [13] were 8.06, 8.06 and 10.4, respectively. In addition, the selectivity ratio at 18 h in [11] was found to be 6.19. The FIC is 0.3125 with Pseudomonas aeruginosa [14]; 0.25 in the series with Pseudomonas aeruginosa [15]; 0.5 in the series on Escherichia coli [16]; 0.3125 in the series on Escherichia coli [17]; 0.5 in the series with Escherichia coli [18]; 0.5625 with Klebsiella pneumoniae [19]. The FIC in the series with Klebsiella pneumoniae [20] was 0.5625; in the series on Klebsiella pneumoniae [21] it was 0.75.

GENTAMICIN: the MIC was less than 1 µM with Staphylococcus aureus [1]; less than 1 µM against Bacillus subtilis; 4 µM against Enterococcus faecalis; less than 1 µM in series [2]; 4 µM in the series on Escherichia coli [3]; 4 µM in the series with Pseudomonas aeruginosa [4]. Besides, the MIC is 16 µM against Klebsiella pneumoniae [5]; less than 1 µM against Acinetobacter baumannii; 8 µM with Pseudomonas aeruginosa [22]; 64 µM against Pseudomonas aeruginosa [23]; 0.5 µM with Pseudomonas aeruginosa [24].

As to `CC[C@H](C)[C@H](NC(=O)CN)C(=O)NCC(=O)N[C@@H](C)C(=O)N[C@H](C(=O)N[C@@H](CC(C)C)C(=O)N[C@@H](CCCCN)C(=O)N[C@H](C(=O)N[C@@H](CC(C)C)C(=O)N[C@H](C(=O)N[C@H](C(=O)NCC(=O)N[C@@H](CC(C)C)C(=O)N1CCC[C@H]1C(=O)N[C@@H](C)C(=O)N[C@@H](CC(C)C)C(=O)N[C@H](C(=O)N[C@@H](CO)C(=O)N[C@@H](Cc1c[nH]c2ccccc12)C(=O)N[C@H](C(=O)N[C@@H](CCCCN)C(=O)N[C@@H](CCCNC(=N)N)C(=O)N[C@@H](CCCCN)C(=O)N[C@@H](CCCNC(=N)N)C(=O)N[C@@H](CCC(N)=O)C(=O)N[C@@H](CCC(N)=O)C(N)=O)[C@@H](C)CC)[C@@H](C)CC)[C@@H](C)O)[C@@H](C)O)C(C)C)C(C)C` [MELITTIN], the MIC in the series with Enterococcus faecalis was determined as 4 µM (≈ 11.4 µg/mL); in the series on Klebsiella pneumoniae [5], 16 µM (≈ 45.5 µg/mL); in the series on Acinetobacter baumannii, 2 µM (≈ 5.69 µg/mL); in the series on Bacteria [7], 4 µM (≈ 11.4 µg/mL); against Fungi, 4 µM (≈ 11.4 µg/mL); in the series with Bacteria [10], 2.38 µM (≈ 6.77 µg/mL). The molecule further returned an MIC against Bacteria [12] of 6.73 µM (≈ 19.2 µg/mL). The molecule further returned an MHC10 in the series on Erythrocyte of 2.26 µM. Also, the selectivity ratio was 57 in series [8], 57 in series [9] and 0.34 in series [13]. Further, the selectivity ratio at 18 h in series [11] came out at 0.95. Further, the result in the series with Staphylococcus aureus [25], in the series on Klebsiella pneumoniae [26], in the series on Staphylococcus aureus [27] and with Klebsiella pneumoniae [28] was inactive. Moreover, the outcome with Escherichia coli [29], in the series with Klebsiella pneumoniae [30] and in the series with Staphylococcus aureus [31] was Active.

Broadly, the MIC is the smallest concentration in the dilution series that meets the test's criterion for growth inhibition. By IC50 is commonly meant the concentration at which inhibition is half-maximal.
